Test results as given in patent US11008304B2, “Tetrazole containing apoptosis signal-regulating kinase 1 inhibitors and methods of use thereof” (ENANTA PHARMACEUTICALS, INC., priority 2018, dated 2021).
pIC50: −log10 of the molar value.

target: ASK1 kinase (Homo sapiens (Human), UniProt Q99683); experiment: HTRF KinEASE assay of ASK1 kinase activity inhibition; assay type: biochemical; settings: 5 nM ASK1, 1 uM STK3 peptide substrate, 100 uM ATP, TR-FRET readout
Method: The ability (IC50) of compounds to inhibit ASK1 kinase activity was determined by HTRF® KinEASE™ Assay System. ASK1 was purchased from Thermofisher (Catalogue #PV4011), ATP was purchased from Sigma (Catalogue #A7699), HTRF® KinEASE™ Assay System was obtained from Cisbio (Bedford, Mass.). ½ Area plate was purchased from Perkin Elmer (Catalogue ##6005560). HTRF® KinEASE™-STK is a generic method for measuring serine/threonine kinase activities using a time-resolved fluorescence resonance energy transfer (TR-FRET) immunoassay. The IC50 value for each compound was determined in the presence of compound (various concentration from 0 to 10 μM) and a fixed amount of ATP and peptide substrates. The test compound, 1 uM STK3 peptide substrate, and 5 nM of ASK1 kinase are incubated with kinase reaction buffer containing 50 mM HEPES pH 7.5, 0.01% BRIJ-35, 10 mM MgCl2, and 1 mM EGTA for 30 minutes. 100 uM ATP is added to start kinase reaction and incubated for 3 hours. The STK3-antibody labeled with Eu^3+-Cryptate and 125 nM streptavidin-XL665 are mixed in a single addition with stop reagents provided by the Cisbio kit used to stop the kinase reaction. Fluorescence is detected using an Envision Multilabeled 2014 reader from PerkinElmer. The Fluorescence is measured at 615 nm (Cryptate) and 665 nm (XL665) and a ratio of 665 nm/615 nm is calculated for each well. The resulting TR-FRET is proportional to the phosphorylation level. Staurosporine was used as the positive control. IC50 was determined by XLfit 5.3. By using above method, the inhibition of ASK1 was tested for the compound of formula (I). IC50 ranges are as follows: A<1 nM; 1 nM<B<10 nM; 10 nM<C<100 nM; 100 nM<D<1 μM; E>1 μM.

Chain of ASK1 kinase (Q99683 whole entry): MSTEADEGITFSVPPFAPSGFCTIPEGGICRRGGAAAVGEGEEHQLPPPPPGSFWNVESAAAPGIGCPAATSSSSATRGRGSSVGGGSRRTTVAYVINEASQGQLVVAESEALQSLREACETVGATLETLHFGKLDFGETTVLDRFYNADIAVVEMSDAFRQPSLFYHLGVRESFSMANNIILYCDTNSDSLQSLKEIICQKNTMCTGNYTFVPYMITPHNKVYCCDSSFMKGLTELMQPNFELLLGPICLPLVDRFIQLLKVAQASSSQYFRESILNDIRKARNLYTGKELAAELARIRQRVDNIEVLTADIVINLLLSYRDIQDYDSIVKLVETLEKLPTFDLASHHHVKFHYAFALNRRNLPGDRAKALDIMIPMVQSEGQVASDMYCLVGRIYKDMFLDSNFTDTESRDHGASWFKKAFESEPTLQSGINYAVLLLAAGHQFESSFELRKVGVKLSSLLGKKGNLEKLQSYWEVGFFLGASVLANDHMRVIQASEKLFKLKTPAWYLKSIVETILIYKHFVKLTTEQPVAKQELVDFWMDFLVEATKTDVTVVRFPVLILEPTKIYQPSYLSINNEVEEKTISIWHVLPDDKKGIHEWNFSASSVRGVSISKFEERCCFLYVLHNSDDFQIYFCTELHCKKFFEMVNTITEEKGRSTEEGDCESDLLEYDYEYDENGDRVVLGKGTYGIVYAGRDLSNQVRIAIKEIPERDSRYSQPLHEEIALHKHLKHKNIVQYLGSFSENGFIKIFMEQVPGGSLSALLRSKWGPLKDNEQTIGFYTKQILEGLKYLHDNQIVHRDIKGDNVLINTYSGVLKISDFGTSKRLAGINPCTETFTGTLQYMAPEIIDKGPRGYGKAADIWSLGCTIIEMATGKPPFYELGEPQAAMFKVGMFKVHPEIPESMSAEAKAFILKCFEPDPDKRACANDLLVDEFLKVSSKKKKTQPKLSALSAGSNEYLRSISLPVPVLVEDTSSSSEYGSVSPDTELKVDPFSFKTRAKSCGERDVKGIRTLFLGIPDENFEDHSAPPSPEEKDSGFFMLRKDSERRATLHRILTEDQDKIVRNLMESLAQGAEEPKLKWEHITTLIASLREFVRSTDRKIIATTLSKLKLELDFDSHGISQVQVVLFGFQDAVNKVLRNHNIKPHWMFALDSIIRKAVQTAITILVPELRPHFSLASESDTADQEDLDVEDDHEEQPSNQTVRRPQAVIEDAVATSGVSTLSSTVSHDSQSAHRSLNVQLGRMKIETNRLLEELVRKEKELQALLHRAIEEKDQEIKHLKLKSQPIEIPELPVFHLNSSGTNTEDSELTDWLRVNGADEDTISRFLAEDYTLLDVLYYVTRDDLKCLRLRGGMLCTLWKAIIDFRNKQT

Row | Compound | pIC50
1 | CC(C)n1nnnc1-c1cccc(NC(=O)c2cc(-c3cnn(C4CC4)c3)ccn2)n1 [Example 1] | 7.00 to 8.00
2 | Cc1cnc(C(=O)Nc2cccc(-c3nnnn3C(C)C)n2)cc1-c1cnn(C2CC2)c1 [Example 2] | 7.00 to 8.00
3 | CC(C)n1nnnc1-c1cccc(NC(=O)c2cc(-c3cnn(C4CC4)c3)c(F)cn2)n1 [Example 3] | 7.00 to 8.00
4 | CC(C)n1nnnc1-c1cccc(NC(=O)c2cc(-c3cnn(C4CC4)c3)c(N3CCCC3)cn2)n1 [Example 4] | 7.00 to 8.00
5 | CC(C)n1nnnc1-c1cccc(NC(=O)c2cc(-c3cnn(C4CC4)c3)c(N3CCCCC3)cn2)n1 [Example 5] | 7.00 to 8.00
6 | CC(C)n1nnnc1-c1cccc(NC(=O)c2cc(-c3cnn(C4CC4)c3)c(N3CCOCC3)cn2)n1 [Example 6] | 8.00 to 9.00
7 | CC(C)n1nnnc1-c1cccc(NC(=O)c2cc(-c3cnn(C4CC4)c3)c(N3CCN(C)CC3)cn2)n1 [Example 7] | 8.00 to 9.00
8 | CC(C)n1nnnc1-c1nc(NC(=O)c2cc(-c3cnn(C4CC4)c3)c(F)cn2)cs1 [Example 8] | 7.00 to 8.00
9 | CC(C)n1nnnc1-c1nc(NC(=O)c2cc(-c3cnn(C4CC4)c3)c(N3CCCC3)cn2)cs1 [Example 9] | 8.00 to 9.00
10 | CC(C)n1nnnc1-c1nc(NC(=O)c2cc(-c3cnn(C4CC4)c3)c(N3CCOCC3)cn2)cs1 [Example 10] | 8.00 to 9.00
11 | CC(C)n1nnnc1-c1nc(NC(=O)c2cc(-c3cnn(C4CC4)c3)c(N3CCCCC3)cn2)cs1 [Example 11] | 7.00 to 8.00
12 | CC(C)n1nnnc1-c1nc(NC(=O)c2cc(-c3cnn(C4CC4)c3)c(N3CCN(C)CC3)cn2)cs1 [Example 12] | 8.00 to 9.00
13 | Cc1cnc(C(=O)Nc2cccc(-c3nnnn3[C@H](C)CO)n2)cc1-c1cnn(C2CC2)c1 [Example 13] | 8.00 to 9.00
14 | CC(C)n1nnnc1-c1cccc(NC(=O)c2cc(-c3cnn(C4CC4)c3)c(C(F)(F)F)cn2)n1 [Example 14] | 7.00 to 8.00
15 | CC(C)n1nnnc1-c1nc(NC(=O)c2cc(-c3cnn(C4CC4)c3)c(C(F)(F)F)cn2)cs1 [Example 15] | 7.00 to 8.00
16 | C[C@H](CO)n1nnnc1-c1cccc(NC(=O)c2cc(-c3cnn(C4CC4)c3)c(C(F)(F)F)cn2)n1 [Example 16] | 8.00 to 9.00
17 | Cc1cnc(C(=O)Nc2cccc(-n3nnnc3C(C)C)n2)cc1-c1cnn(C2CC2)c1 [Example 17] | 7.00 to 8.00
18 | CC(C)n1nnnc1-c1cccc(NC(=O)c2cc(-c3cnn(C4CC4)c3)c(C(F)F)cn2)n1 [Example 18] | 8.00 to 9.00
19 | CC(C)n1nnnc1-c1nc(NC(=O)c2cc(-c3cnn(C4CC4)c3)c(C(F)F)cn2)cs1 [Example 19] | 8.00 to 9.00
20 | Cc1cnc(C(=O)Nc2cccc(-c3nnnn3C(C)C)n2)cc1-c1cnn(C(C)(C)C)c1 [Example 20] | 8.00 to 9.00
21 | Cc1cnc(C(=O)Nc2cccc(-n3nnnc3C(C)C)n2)cc1-c1cnn(C(C)(C)C)c1 [Example 21] | 7.00 to 8.00
22 | Cc1cnc(C(=O)Nc2cccc(-c3nnnn3[C@H](C)CO)n2)cc1-c1cnn(C(C)(C)C)c1 [Example 22] | 8.00 to 9.00
23 | Cc1cnc(C(=O)Nc2cccc(-c3nnnn3C(C)C)n2)cc1-c1cn(C(C)C)cn1 [Example 23] | 7.00 to 8.00
24 | Cc1cnc(C(=O)Nc2cccc(-n3nnnc3C(C)C)n2)cc1-c1cn(C(C)C)cn1 [Example 24] | < 6.00
25 | Cc1cnc(C(=O)Nc2cccc(-c3nnnn3[C@H](C)CO)n2)cc1-c1cn(C(C)C)cn1 [Example 25] | 8.00 to 9.00
26 | Cc1cnc(C(=O)Nc2cccc(-c3nnnn3C(C)C)n2)cc1-c1cnn(C(C)C)c1 [Example 26] | 8.00 to 9.00
27 | Cc1cnc(C(=O)Nc2cccc(-n3nnnc3C(C)C)n2)cc1-c1cnn(C(C)C)c1 [Example 27] | 8.00 to 9.00
28 | Cc1cnc(C(=O)Nc2cccc(-c3nnnn3[C@H](C)CO)n2)cc1-c1cnn(C(C)C)c1 [Example 28] | 8.00 to 9.00

Row | Compound | pIC50
29 | C[C@H](CO)n1nnnc1-c1cccc(NC(=O)c2cc(-c3cnn(C4CC4)c3)c(C(F)F)cn2)n1 [Example 29] | 8.00 to 9.00
30 | Cc1cnc(C(=O)Nc2cccc(-c3nnnn3C(C)C)n2)cc1-c1cnn(C(F)(F)F)c1 [Example 30] | 7.00 to 8.00
31 | Cc1cnc(C(=O)Nc2cccc(-n3nnnc3C(C)C)n2)cc1-c1cnn(C(F)(F)F)c1 [Example 31] | < 6.00
32 | Cc1cnc(C(=O)Nc2cccc(-c3nnnn3[C@H](C)CO)n2)cc1-c1cnn(C(F)(F)F)c1 [Example 32] | 8.00 to 9.00
33 | Cc1cnc(C(=O)Nc2cccc(-c3nnnn3C(C)C)n2)cc1-c1ccn(C(C)C)n1 [Example 33] | 7.00 to 8.00
34 | Cc1cnc(C(=O)Nc2cccc(-n3nnnc3C(C)C)n2)cc1-c1ccn(C(C)C)n1 [Example 34] | < 6.00
35 | Cc1cnc(C(=O)Nc2cccc(-c3nnnn3[C@H](C)CO)n2)cc1-c1ccn(C(C)C)n1 [Example 35] | 8.00 to 9.00
36 | Cc1cnc(C(=O)Nc2cccc(-c3nnnn3C(C)C)n2)cc1-c1ccccn1 [Example 36] | 7.00 to 8.00
37 | Cc1cnc(C(=O)Nc2cccc(-c3nnnn3C(C)C)n2)cc1-c1cccnc1 [Example 37] | 8.00 to 9.00
38 | Cc1cnc(C(=O)Nc2cccc(-c3nnnn3C(C)C)n2)cc1-c1ccncc1 [Example 38] | 7.00 to 8.00
39 | Cc1ncc(-c2cc(C(=O)Nc3cccc(-c4nnnn4C(C)C)n3)ncc2C)s1 [Example 39] | 8.00 to 9.00
40 | Cc1nc(-c2cc(C(=O)Nc3cccc(-c4nnnn4C(C)C)n3)ncc2C)cs1 [Example 40] | 7.00 to 8.00
41 | Cc1cnc(C(=O)Nc2cccc(-c3nnnn3[C@H](C)CO)n2)cc1-c1cccnc1 [Example 41] | 8.00 to 9.00
42 | Cc1cnc(C(=O)Nc2cccc(-c3nnnn3C(C)C)n2)cc1-c1cnc(C2CC2)s1 [Example 42] | 8.00 to 9.00
43 | Cc1cnc(C(=O)Nc2cccc(-c3nnnn3[C@H](C)CO)n2)cc1-c1cnc(C2CC2)s1 [Example 43] | 8.00 to 9.00
44 | Cc1cnc(C(=O)Nc2cccc(-c3nnnn3C(C)C)n2)cc1-c1ccc(C2CC2)s1 [Example 44] | 7.00 to 8.00
45 | Cc1cnc(C(=O)Nc2cccc(-c3nnnn3[C@H](C)CO)n2)cc1-c1ccc(C2CC2)s1 [Example 45] | 8.00 to 9.00
46 | Cc1cc(F)c(C(=O)Nc2cccc(-c3nnnn3C(C)C)n2)cc1-c1cnn(C2CC2)c1 [Example 46] | 8.00 to 9.00
47 | Cc1cc(F)c(C(=O)Nc2cccc(-c3nnnn3[C@H](C)CO)n2)cc1-c1cnn(C2CC2)c1 [Example 47] | 8.00 to 9.00
48 | Cc1cc(F)c(C(=O)Nc2cccc(-c3nnnn3C(C)C)n2)cc1-c1cnn(C(C)C)c1 [Example 49] | 8.00 to 9.00
49 | Cc1cc(F)c(C(=O)Nc2cccc(-c3nnnn3[C@H](C)CO)n2)cc1-c1cnn(C(C)C)c1 [Example 50] | 8.00 to 9.00
50 | Cc1cc(F)c(C(=O)Nc2cccc(-n3nnnc3C(C)C)n2)cc1-c1cnn(C(C)C)c1 [Example 51] | 8.00 to 9.00
51 | Cc1cc(F)c(C(=O)Nc2cccc(-c3nnnn3C(C)C)n2)cc1-c1cnn(C(C)(C)C)c1 [Example 52] | 8.00 to 9.00
52 | Cc1cc(F)c(C(=O)Nc2cccc(-n3nnnc3C(C)C)n2)cc1-c1cnn(C(C)(C)C)c1 [Example 53] | 8.00 to 9.00
53 | Cc1cc(F)c(C(=O)Nc2cccc(-c3nnnn3[C@H](C)CO)n2)cc1-c1cnn(C(C)(C)C)c1 [Example 54] | 8.00 to 9.00
54 | Cc1cc(F)c(C(=O)Nc2cccc(-c3nnnn3C(C)C)n2)cc1-c1cnn(C(F)(F)F)c1 [Example 55] | 7.00 to 8.00
55 | Cc1cc(F)c(C(=O)Nc2cccc(-n3nnnc3C(C)C)n2)cc1-c1cnn(C(F)(F)F)c1 [Example 56] | 6.00 to 7.00
